Measured values published in the supplement of paper PMC10307832.

Experiments:
Test in all cases: relative viability (nuclei count vs DMSO), 5 days (fraction); higher = more cells survive
[1] = compound: CCn1c(-c2nonc2N)nc2cnc(Oc3cccc(NC(=O)c4ccc(OCCN5CCOCC5)cc4)c3)cc21 + N=C(N)NC(=N)NCCc1ccccc1 [Phenformin] (partner 250 µM)
How it was run: (§1)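 Relative viability is defined as nuclei in treated wells over nuclei in vehicle wells. Duplicate plates were run and medians reported. Lung cancer cell lines in 1536-well plates were dosed by pin tool one day after seeding, with one drug or with a fixed anchor-drug dose plus five library-drug doses (not always all listed) in √10 steps, and nuclei were counted after 5 days.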

[2] = compound: CCC1=CN=CN=C1N2CCN(CC2)CC3=NC4=C(N3)C=C(C=C4)C(F)(F)F + Cc1nc(Nc2ncc(C(=O)Nc3c(C)cccc3Cl)s2)cc(N2CCN(CCO)CC2)n1 [Dasatinib] (partner 0.075 µM)
How it was run: as §1

[3] = compound: CCn1c(-c2nonc2N)nc2cnc(Oc3cccc(NC(=O)c4ccc(OCCN5CCOCC5)cc4)c3)cc21 + CC(=O)Nc1cccc(-n2c(=O)n(C3CC3)c(=O)c3c(Nc4ccc(I)cc4F)n(C)c(=O)c(C)c32)c1 [Trametinib] (partner 0.02 µM)
How it was run: as §1

[4] = compound: CCC1=CN=CN=C1N2CCN(CC2)CC3=NC4=C(N3)C=C(C=C4)C(F)(F)F + COc1cccc2cc(-c3nc([C@H]4CC[C@H](C(=O)O)CC4)n4ncnc(N)c34)[nH]c12 [OSI-027] (partner 0.5 µM)
How it was run: as §1

| Cell Line | relative viability ([1]; first compound 0.04 µM) | relative viability ([1]; first compound 0.1265 µM) | relative viability ([1]; first compound 0.4 µM) | relative viability ([1]; first compound 1.265 µM) | relative viability ([1]; first compound 4 µM) | relative viability ([2]; first compound 0.04 µM) | relative viability ([2]; first compound 0.1265 µM) | relative viability ([2]; first compound 0.4 µM) | relative viability ([2]; first compound 1.265 µM) | relative viability ([2]; first compound 4 µM) | relative viability ([3]; first compound 0.04 µM) | relative viability ([3]; first compound 0.1265 µM) | relative viability ([3]; first compound 0.4 µM) | relative viability ([3]; first compound 1.265 µM) | relative viability ([3]; first compound 4 µM) | relative viability ([4]; first compound 0.04 µM) | relative viability ([4]; first compound 0.1265 µM) | relative viability ([4]; first compound 0.4 µM) | relative viability ([4]; first compound 1.265 µM) | relative viability ([4]; first compound 4 µM) |
| --- | --- | --- | --- | --- | --- | --- | --- | --- | --- | --- | --- | --- | --- | --- | --- | --- | --- | --- | --- | --- |
| COR-L 105 | 0.523 | 0.416 | 0.389 | 0.31 | 0.271 | 0.279 | 0.316 | 0.362 | 0.399 | 0.338 | 0.343 | 0.42 | 0.365 | 0.319 | 0.376 | 0.609 | 0.616 | 0.6 | 0.468 | 0.744 |
| NCI-H1993 | 0.66 | 0.562 | 0.546 | 0.565 | 0.508 | 0.608 | 0.553 | 0.545 | 0.521 | 0.581 | 0.441 | 0.427 | 0.464 | 0.439 | 0.509 | 0.49 | 0.55 | 0.614 | 0.494 | 0.604 |
| NCI-H1437 | 0.321 | 0.312 | 0.239 | 0.295 | 0.288 | 0.339 | 0.369 | 0.386 | 0.328 | 0.22 | 0.599 | 0.556 | 0.517 | 0.435 | 0.403 | 0.857 | 0.847 | 0.777 | 0.667 | 0.749 |
| PC-14 | 0.962 | 0.556 | 0.549 | 0.258 | 0.457 | 0.269 | 0.258 | 0.264 | 0.218 | 0.264 | 0.632 | 0.379 | 0.468 | 0.426 | 0.396 | 0.871 | 0.814 | 0.809 | 0.766 | 0.82 |
| NCI-H1666 | 0.597 | 0.603 | 0.582 | 0.211 | 0.259 | 0.777 | 0.685 | 0.742 | 0.783 | 0.865 | 0.95 | 1.09 | 0.851 | 0.582 | 0.528 | 0.736 | 0.81 | 0.816 | 0.803 | 0.873 |
| NCI-H1944 | 0.192 | 0.161 | 0.109 | 0.111 | 0.102 | 0.228 | 0.217 | 0.211 | 0.208 | 0.22 | 0.409 | 0.365 | 0.441 | 0.467 | 0.359 | 0.524 | 0.382 | 0.385 | 0.338 | 0.39 |
| NCI-H2023 | 0.538 | 0.381 | 0.328 | 0.223 | 0.186 | 0.641 | 0.546 | 0.529 | 0.488 | 0.582 | 0.708 | 0.652 | 0.474 | 0.317 | 0.237 | 0.447 | 0.403 | 0.342 | 0.321 | 0.453 |
| NCI-H1755 | 0.565 | 0.508 | 0.301 | 0.304 | 0.332 | 0.427 | 0.396 | 0.416 | 0.375 | 0.381 | 0.832 | 0.772 | 0.71 | 0.749 | 0.734 | 0.712 | 0.691 | 0.717 | 0.458 | 0.663 |
| NCI-H2347 | 0.521 | 0.784 | 0.465 | 0.312 | 0.403 | 0.257 | 0.4 | 0.281 | 0.351 | 0.339 | 0.261 | 0.279 | 0.298 | 0.238 | 0.262 | 0.471 | 0.446 | 0.374 | 0.262 | 0.406 |
| 201T | 0.471 | 0.44 | 0.342 | 0.368 | 0.396 | 0.527 | 0.565 | 0.559 | 0.568 | 0.541 | 0.719 | 0.706 | 0.749 | 0.697 | 0.698 | 0.737 | 0.752 | 0.748 | 0.664 | 0.747 |
| NCI-H1734 | 0.427 | 0.388 | 0.209 | 0.284 | 0.201 | 0.403 | 0.532 | 0.522 | 0.476 | 0.441 | 0.676 | 0.729 | 0.69 | 0.603 | 0.467 | 0.601 | 0.557 | 0.58 | 0.513 | 0.714 |
| NCI-H596 | 0.898 | 0.77 | 0.598 | 0.531 | 0.661 | 0.679 | 0.608 | 0.555 |  | 0.668 | 0.797 | 0.804 | 0.825 | 0.555 | 0.657 | 0.723 | 0.683 | 0.743 |  | 0.915 |
| NCI-H1650 | 0.47 | 0.382 | 0.229 | 0.397 | 0.369 | 0.346 | 0.299 | 0.333 |  | 0.309 | 0.668 | 0.543 | 0.52 | 0.37 | 0.496 | 0.635 | 0.621 | 0.565 |  | 0.752 |
| NCI-H1355 | 0.53 | 0.426 | 0.261 | 0.24 | 0.227 | 0.761 | 0.631 | 0.621 | 0.657 | 0.735 | 0.322 | 0.433 | 0.434 | 0.392 | 0.398 | 0.433 | 0.406 | 0.373 | 0.327 | 0.391 |
| NCI-H1915 | 0.38 | 0.355 | 0.285 | 0.188 | 0.169 | 0.276 | 0.318 | 0.283 | 0.298 | 0.319 | 0.267 | 0.31 | 0.309 | 0.227 | 0.221 | 0.612 | 0.629 | 0.605 | 0.49 | 0.587 |
| BEN | 0.29 | 0.275 | 0.21 | 0.235 | 0.228 | 0.241 | 0.261 | 0.303 | 0.335 | 0.288 | 0.955 | 0.972 | 0.702 | 0.518 | 0.521 | 0.299 | 0.276 | 0.317 | 0.223 | 0.256 |
